Molecules are shown by their SMILES.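 Values below derive from 48-hour exposures of cells grown in 96-well plates, with endpoints linearly interpolated between the two concentrations bracketing the appropriate inhibition level. The concentration for 50% growth inhibition is given as GI50. TGI: concentration producing complete growth inhibition.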

This note sets out measurements from PubChem BioAssay (NCI).

What all share (assay): NCI anticancer screen, dose series, 48 h
The test system of assay [1] is 786-0 renal.
In assay [2] the test system is UACC-62 melanoma.
Assay [3] has as its system K-562 leukemia.
For assay [4], the system named is NCI-H460 lung.
The test system of assay [5] is M14 melanoma.
Assay [6] has as its system LOX IMVI melanoma.
The subject of assay [7] is U251 CNS.
For assay [8], the system named is PC-3 prostate.
Assay [9] concerns MDA-MB-435.

On to `Cc1ccccc1NC(=O)C(=O)C(C#N)c1ccccc1C` (stereo not given), for which the TGI was greater than 100 µM in assay [1]; greater than 100 µM in [2]; 61.5 µM in assay [3]; greater than 100 µM in assay [4]; greater than 100 µM in assay [5]; 39.4 µM in assay [6]. The compound also returned a TGI in assay [7] greater than 100 µM.

As for `C=C1CCC2[C@@H](CCC3[C@]2(C)CCC[C@]3(C)C(=O)OC)C1CC=O` (stereo not given in full), the TGI was determined as 33.1 µM in assay [1]; 31.6 µM in [2]; 26.6 µM in assay [3]; 31.7 µM in [4]; 30.6 µM in assay [5]; 33.5 µM in [7]. Also, the GI50 in [3] is 8.65 µM; in assay [7], 17.8 µM.

Consider `N#CC(C#N)c1ccc(C(=O)N2CCC[C@H]2CO)cc1`, for which the TGI in assay [1], in assay [2], in assay [3], in [4], in assay [5] and in assay [6] was greater than 100 µM in each case. The compound further yielded a TGI in [7] greater than 100 µM.

Turning to `O=S(=O)(c1cccc(N=C=S)c1)c1cccc(N=C=S)c1`, the TGI in [1] is 29.5 µM; in [2], 36.2 µM; in [3] it was greater than 100 µM; in [5] it was 25.6 µM; in assay [6] it was 31.6 µM; in assay [7], 35.4 µM.

With `Cc1cc(C)nc(NS(=O)(=O)c2ccc(Nc3c4ccccc4nc4c(C(=O)Nc5ccc(S(=O)(=O)N=C(N)N)cc5)cccc34)cc2)n1`, the TGI in assay [1], in assay [2], in assay [3], in assay [4], in assay [5] and in [6] was greater than 100 µM each time. The same compound gave a TGI in assay [7] greater than 100 µM.

On to `O=C(O)/C=C/c1nc2ccccc2c(=O)o1`, for which the TGI in assay [1], in assay [2], in assay [3], in [5], in assay [6] and in [7] was greater than 100 µM each time.

With `CCOC(=O)/C(C#N)=C(O)/C(=C\c1ccc(Br)cc1)NC(=O)c1ccccc1`, the TGI in assay [1], in [2], in assay [3], in [4], in [5] and in [7] was greater than 100 µM in each case.

Consider `COCCNC(=O)C1C(=O)C(=O)N(CCOC)C1=O` (stereo not given), for which the TGI in [1], in [2], in assay [3], in [5], in [6] and in assay [7] was greater than 100 µM throughout.

For `COc1cc2c(cc1OC)-c1ncc3c(OC)c(OC)c(OC)cc3c1C2`, the GI50 in assay [1] was 36.7 µM; in assay [8] it was greater than 100 µM; in assay [2], 3.84 µM; in assay [3], 10.7 µM; in [4], 15.3 µM; in assay [5] it was greater than 100 µM. In addition, in assay [7], the GI50 was 15.8 µM. Besides, the TGI in assay [1] is greater than 100 µM; in assay [8] it was greater than 100 µM; in assay [2] it was 25.6 µM; in assay [3] it was greater than 100 µM; in [4], 61.3 µM; in assay [5] it was greater than 100 µM. The compound further displayed a TGI in assay [7] of 33 µM.

Turning to `CC(C)=CC(=O)N(C)C1C2CN3CCC(O2)C13` (stereo not given), the TGI in [1], in [2], in [3], in [4], in [5] and in assay [6] was greater than 100 µM throughout. In assay [7], this compound showed a TGI greater than 100 µM.

As to `O=S(=O)(/C=C/C(=C/c1ccccc1)S(=O)(=O)c1ccccc1)c1ccccc1`, the TGI in [1] was found to be 3.15 µM; in assay [2] it was 3.85 µM; in assay [3], 9.19 µM; in [4] it was 3.45 µM; in [5], 2.57 µM; in assay [6], 2.08 µM. The TGI in assay [7] was 3.27 µM.

As to `CCCCCCCCCCCCC(Br)C(=O)NCC(N)=O` (stereo not given), the TGI stood at 20.9 µM in [1]; 22.7 µM in assay [2]; 34.7 µM in assay [4]; 24.6 µM in assay [5]; 42.1 µM in assay [6]; 24.6 µM in [7].

Regarding `N#Cc1ccc(C=NC23CC4CC(CC(C4)C2)C3)cc1`, the TGI in assay [1], in assay [2], in assay [3], in [4], in assay [5] and in assay [6] was greater than 100 µM each time. The same compound came in with a TGI in assay [7] greater than 100 µM.

For the compound `Cc1ccc(NC(=O)CC2C(=O)Nc3ccccc3S2(=O)=O)c(C)c1` (stereo not given), the TGI in assay [1] worked out at 40.3 µM; in assay [2], 50.5 µM; in assay [3], 29 µM; in [4] it was 33.8 µM; in assay [5] it was 26.2 µM; in assay [6], 29 µM. Also, the TGI in [7] amounted to 25.8 µM.

For the compound `C=CNC(=O)NC(=O)CSc1nnc(-c2ccccc2NC(=O)C(F)(F)F)c(=O)[nH]1`, the TGI in assay [1], in assay [2], in [3], in assay [4], in assay [5] and in [6] was greater than 100 µM each time. Besides, in assay [7], the TGI was greater than 100 µM.

In the case of `NC(=O)NNC(=O)NC12CC3CC(CC(C3)C1)C2`, the TGI in [1], in assay [2], in assay [3], in [4], in assay [5] and in assay [6] was greater than 100 µM in each case. Moreover, the TGI in assay [7] is greater than 100 µM.

`CN(CCNCc1ccccn1)CCNCc1ccccn1`: the GI50 in [1] is 1.8 µM; in assay [8], 2.27 µM; in assay [9] it was 2.21 µM; in assay [2], 2.18 µM; in assay [3], 3.58 µM; in [4], 3.16 µM. Further, the results for the GI50 in [5], in [6] and in assay [7] were 2.26 µM, 2.48 µM and 3.48 µM, respectively. In addition, the TGI is 3.57 µM in assay [1]; 7.59 µM in assay [8]; 4.93 µM in assay [9]; 4.74 µM in assay [2]; greater than 100 µM in [3]; 9.54 µM in assay [4]. The TGI in assay [5] came out at 5.93 µM; in [6] it was 6.88 µM; in assay [7], 12 µM.

As for `O=C(CC1SC(=Nc2ccccc2Cl)NC1=O)Nc1ccc(Cl)cc1Cl` (stereo not given), the TGI in [1], in [2], in [4], in [5], in [6] and in [7] was greater than 100 µM throughout.

Regarding `O=c1[nH]cc(F)c(=O)n1C1OC(CO)C(O)C1O` (stereo not given), the TGI in assay [1], in assay [3], in assay [4], in assay [5], in [6] and in [7] was greater than 100 µM in each case.

For the compound `O=C(c1nc2ccccc2[nH]c1=O)C(O)c1ccccc1` (stereo not given), the TGI in assay [1], in [2], in assay [3], in assay [4], in assay [5] and in assay [6] was greater than 100 µM in each case. In addition, the TGI in assay [7] was greater than 100 µM.

`CC(=O)OCCOCNC(=S)N/N=C/c1cc(Br)cs1`: the TGI in assay [1], in [2], in assay [3], in [4], in [5] and in assay [6] was greater than 100 µM each time. The compound further returned a TGI in [7] greater than 100 µM.

Consider `CC1(c2ccccc2Cl)C(C#N)C(=O)NC(=O)C1C#N` (stereo not given), for which the TGI in assay [1], in assay [2], in assay [3], in assay [4], in [5] and in [6] was greater than 100 µM throughout.

As to `COCOCC/C=C/C=O`, the TGI in assay [1], in [2], in assay [3], in [4], in [5] and in assay [6] was greater than 100 µM throughout. The TGI in [7] is greater than 100 µM.

Consider `Cc1ccc(S(=O)(=O)N/N=C(/CC(=O)c2c(C)n([O-])c3ccccc3[n+]2=O)C(=O)Nc2ccccc2C)cc1`, for which the TGI in [1], in assay [2], in assay [4], in assay [5] and in assay [7] was greater than 100 µM each time.

In the case of `Cc1ccc(C)c(N2C(=O)C(=O)C(c3nc4ccccc4s3)/C(=N/NC(=O)NN)C2=O)c1` (stereo not given), the TGI in assay [1], in assay [2], in assay [4], in assay [5] and in assay [7] was greater than 100 µM in each case.

For `COc1ccc(-c2cc(C(=O)Nc3ccc(C)c(C)c3)nc(NC#N)n2)cc1`, the TGI in assay [1], in [2], in assay [3], in assay [4], in assay [5] and in [6] was greater than 100 µM in each case. In [7], this compound registered a TGI greater than 100 µM.

For `NC(=O)c1csc(C2OC(COP(=O)(O)CP(=O)(O)OCC3OC(n4cnc5c(N)ncnc54)C(O)C3O)C(O)C2O)n1` (stereo not given), the TGI in assay [1], in assay [2], in assay [3], in [4], in [5] and in assay [6] was greater than 100 µM in each case. Further, the TGI in assay [7] was greater than 100 µM.

In the case of `CC1(C)CC(=O)C(/C(=N/NC(=S)NN)C(=O)Nc2nc3ccc([N+](=O)[O-])cc3s2)C(=O)C1`, the TGI in [1], in assay [2], in assay [3], in [4], in assay [5] and in assay [6] was greater than 100 µM each time. In addition, the TGI in assay [7] is greater than 100 µM.

`COc1cc2c(cc1OCCCCN1CCN(C(=S)SCCC(C#N)(c3ccccc3)c3ccccc3)CC1)N=C[C@@H]1CCCN1C2=O`: the GI50 was 1.28 µM in assay [1]; 0.697 µM in [8]; 1.04 µM in [9]; 1.32 µM in assay [2]; 3.29 µM in assay [3]; 1.25 µM in assay [4]. Further, in [7], the GI50 is 1.11 µM. Also, the TGI is 2.8 µM in assay [1]; 2.41 µM in assay [8]; 2.81 µM in assay [9]; 3.55 µM in assay [2]; greater than 100 µM in assay [3]; 4.02 µM in assay [4]. In [7], this compound displayed a TGI of 2.66 µM.

For `C[CH2][Sn]([CH2]C)([O]C(=O)c1ccccc1OC)[O][Sn]([CH2]C)([CH2]C)[O]C(=O)c1ccccc1OC`, the GI50 in assay [1] is greater than 100 µM; in assay [2] it was greater than 100 µM; in assay [3], 47 µM; in assay [4], greater than 100 µM; in [5] it was greater than 100 µM; in assay [6] it was 73 µM. The GI50 in assay [7] was greater than 100 µM. The TGI in assay [1], in assay [2], in [3], in assay [4], in assay [5] and in [6] was greater than 100 µM throughout. For the same compound, in assay [7], the TGI is greater than 100 µM.

In the case of `COc1ccc(/C=C2\CCC(C)(CN(C)C)C2=O)cc1OC` (stereo not given), the TGI in [1], in assay [2], in assay [3], in assay [4], in assay [5] and in assay [6] was greater than 100 µM in each case. The compound further gave a TGI in [7] greater than 100 µM.

`O=C1Nc2ccccc2N=CC1NC(=O)C(c1ccccc1)c1ccccc1` (stereo not given): the TGI in assay [1], in [2], in assay [3], in [4], in assay [5] and in [6] was greater than 100 µM throughout. The compound further yielded a TGI in [7] greater than 100 µM.
